From patent US8288410B2, “3-substituted quinolinium and 7H-indolo[2,3-c]quinolinium salts as new antiinfectives” (Florida Agricultural and Mechanical University, priority 2008, dated 2012)

Columns and labels:
[1] = tested on: Cryptococcus neoformans ATCC 90113; experiment: Antifungal susceptibility testing, Cryptococcus neoformans; type: cell-based; conditions: Table 1
Experimental: (§1) Using standard susceptibility tests, the compounds of the invention were determined to be active against MRSA, C. neoformans and several other bacteria, fungi and protozoa. More specifically, the antibacterial and antifungal testing was carried out in the following manner. Cryptococcus neoformans ATCC 90113 and MRSA were obtained from the American Type Culture Collection (Manassas. Va.). Several others including Candida albicans ATTC 90028, Aspergillus fumigatus ATCC 90906 and Mycobacterium intracellulare (M. intracellulare) ATCC 23086 were also procured. Susceptibility testing was performed using a modified version of the National Committee for Clinical Laboratory Standards method. M. intracellulare was tested using a modified method of Franzblau, et al., J. Clin. Microbiol., 1998, 36, 362-366. DMSO solutions of samples were serially diluted in saline, and transferred in duplicate to 96 well microplates. Microbial suspensions were diluted in the broth to afford desired colony forming units/mL according to the 0.5 McFarland Standard [C. Albicans: either Saboraud Dextrose broth (SDB) or RPMI 1640, C. neoformans: SDB, A fumigatus: either YM broth (for MICS) or RPMI-1640+5% Alamar Blue.] After adding microbial cultures to the sampled afforded a final volume of 200 μL and final test concentration starting with 20 μg/mL, plates were read prior to and after final incubation using either fluorescence at 544ex/590em (M intracellulare, A. fumigatus) using the Polarstar galaxy reader (Biotek Instruments, Vermont). Growth (saline only), solvent and blank (media only) controls were included on each test plate. Drug controls [Ciprofloxacin (ICN Biomedicals, Ohio) for bacteria and Amphotericin B (ICN Biomedicals, Ohio) for fungi] were included in each assay. Percent growth was calculated and plotted versus test concentration to afford IC50 (sample concentration that affords 50% inhibition or growth of the organism). The minimum inhibitory concentration (MIC) was determined by visually inspecting the plate, and is defined as the lowest test concentration that allows no detectable growth (for Almar Blue assays, no color change from blue to pink).

[2] = tested on: Aspergillus fumigatus ATCC 90906; experiment: Antifungal susceptibility testing, Aspergillus fumigatus; type: cell-based; conditions: Table 1; Aspergillus fumigatus
Experimental: as §1

[3] = tested on: MRSA; experiment: Antibacterial susceptibility testing, MRSA; type: cell-based, methicillin resistant Staphylococcus aureus; conditions: Table 1
Experimental: as §1

[4] = tested on: Candida albicans ATTC 90028; experiment: Antifungal susceptibility testing, Candida albicans; type: cell-based; conditions: Table 1
Experimental: as §1

SMILES | Cn IC50 [1] | Cn MFC [1] | Cn MIC [1] | A fu IC50 [2] | A fu MFC [2] | A fu MIC [2] | MRS IC50 [3] | MRS MFC [3] | MRS MIC [3] | Ca IC50 [4] | Ca MFC [4] | Ca MIC [4]
C[n+]1cc(Sc2ccc(C(F)(F)F)cc2)cc2ccccc21.[I-] [XYZ-III-65] | — ((-) = >20 μg/mL) | — ((-) = >20 μg/mL) | — ((-) = >20 μg/mL) | — ((-) = >20 μg/mL) | — ((-) = >20 μg/mL) | — ((-) = >20 μg/mL) | — ((-) = >20 μg/mL) | — ((-) = >20 μg/mL) | — ((-) = >20 μg/mL) | — ((-) = >20 μg/mL) | — ((-) = >20 μg/mL) | — ((-) = >20 μg/mL)
COc1ccc(Sc2cc3ccccc3[n+](C)c2)cc1.[I-] [XYZ-III-71] | — ((-) = >20 μg/mL) | — ((-) = >20 μg/mL) | — ((-) = >20 μg/mL) | — ((-) = >20 μg/mL) | — ((-) = >20 μg/mL) | — ((-) = >20 μg/mL) | — ((-) = >20 μg/mL) | — ((-) = >20 μg/mL) | — ((-) = >20 μg/mL) | — ((-) = >20 μg/mL) | — ((-) = >20 μg/mL) | — ((-) = >20 μg/mL)
COc1ccc(Sc2cc3ccccc3[n+](CCCCCc3ccccc3)c2)cc1.[I-] [XYZ-III-72] | 9.5 µg/mL | — ((-) = >20 μg/mL) | 20 µg/mL | 3.5 µg/mL | — ((-) = >20 μg/mL) | 10 µg/mL | 2.0 µg/mL | 10 µg/mL | 5.0 µg/mL | — ((-) = >20 μg/mL) | — ((-) = >20 μg/mL) | — ((-) = >20 μg/mL)
Clc1ccccc1Sc1cc2ccccc2[n+](CCCCCc2ccccc2)c1.[I-] [XYZ-III-74] | 2.0 µg/mL | 20 µg/mL | 5.0 µg/mL | 0.70 µg/mL | — ((-) = >20 μg/mL) | 2.5 µg/mL | 1.0 µg/mL | 10 µg/mL | 2.5 µg/mL | — ((-) = >20 μg/mL) | — ((-) = >20 μg/mL) | — ((-) = >20 μg/mL)
[I-].c1ccc(CCCCC[n+]2cc(Oc3ccccc3)cc3ccccc32)cc1 [XYZ-III-83] | — ((-) = >20 μg/mL) | — ((-) = >20 μg/mL) | — ((-) = >20 μg/mL) | 2.0 µg/mL | — ((-) = >20 μg/mL) | — ((-) = >20 μg/mL) | 15 µg/mL | — ((-) = >20 μg/mL) | 20 µg/mL | — ((-) = >20 μg/mL) | — ((-) = >20 μg/mL) | — ((-) = >20 μg/mL)
Brc1ccccc1Sc1cc2ccccc2[n+](CCCCCc2ccccc2)c1.[I-] [XYZ-III-85] | 1.5 µg/mL | 10 µg/mL | 5.0 µg/mL | 0.50 µg/mL | — ((-) = >20 μg/mL) | 5.0 µg/mL | 0.95 µg/mL | 10 µg/mL | 2.5 µg/mL | 20 µg/mL | — ((-) = >20 μg/mL) | — ((-) = >20 μg/mL)
Brc1cccc(Sc2cc3ccccc3[n+](CCCCCc3ccccc3)c2)c1.[I-] [XYZ-III-87] | 2.0 µg/mL | 20 µg/mL | 5.0 µg/mL | 3.0 µg/mL | — ((-) = >20 μg/mL) | 10 µg/mL | 2.0 µg/mL | 20 µg/mL | 5.0 µg/mL | — ((-) = >20 μg/mL) | — ((-) = >20 μg/mL) | — ((-) = >20 μg/mL)
Brc1ccc(Sc2cc3ccccc3[n+](CCCCCc3ccccc3)c2)cc1.[I-] [XYZ-III-89] | 1.0 µg/mL | 10 µg/mL | 2.5 µg/mL | 1.5 µg/mL | — ((-) = >20 μg/mL) | 2.5 µg/mL | 1.5 µg/mL | 10 µg/mL | 2.5 µg/mL | 15 µg/mL | — ((-) = >20 μg/mL) | — ((-) = >20 μg/mL)
